Measured values reported in patent publication US20180021773A1, “ASSAY DEVICES, METHODS FOR CARRYING OUT ASSAYS, ASSAY KITS AND METHOD FOR MANUFACTURING ASSAY DEVICES” (Loughborough University, priority 2014, published 2018).

What was measured:
[1] = system: Staphylococcus Aureus ATCC 25923; test: Colourimetric enzymatic assays in loaded capillaries; format: cell-based; conditions: overnight at 37° C.; substrate per capillary from Table 4, 500 mg/mL; yellow = positive reaction
Method: (§1) An experiment was conducted to test a combination of sugar fermentation and enzymatic assays for the specific identification of bacteria. Individual 200 micron internal diameter capillaries coated with cross-linked HMW PVA were individually loaded with different reagents to perform a combination of colourimetric sugar fermentation and enzymatic assays as shown in Table 4. [table] […] Staphylococcus Epidermidis ATCC 12228 or Staphylococcus Saprophyticus ATCC 15305 resuspended in Microbatch Staph 12 S suspending media. The strips were incubated overnight at 37° C., and positive/negative identification of assays on individual capillaries was performed by imaging the strips with CCD camera. Enzyme detection: enzymatic substrates are normally colourless. If bacteria have the targeted enzymes, the substrates will be hydrolysed, releasing compounds that will produce a yellow colour indicating a positive reaction.

[2] = system: Staphylococcus Saprophyticus ATCC 15305; test: as above; format: cell-based; conditions: overnight at 37° C.; substrate per capillary from Table 4, 500 mg/mL; yellow = positive reaction
Method: as §1

[3] = system: Staphylococcus Epidermidis ATCC 12228; test: as above; format: cell-based; conditions: overnight at 37° C.; substrate per capillary from Table 4, 500 mg/mL; yellow = positive reaction
Method: as §1

[4] = system: Staphylococcus Aureus ATCC 25923; test: Colourimetric fermentation assays in loaded capillaries; format: cell-based; conditions: overnight at 37° C.; reagent per capillary from Table 4; orange to yellow = fermentation, orange to purple = arginine/urea degradation
Method: (§2) An experiment was conducted to test a combination of sugar fermentation and enzymatic assays for the specific identification of bacteria. Individual 200 micron internal diameter capillaries coated with cross-linked HMW PVA were individually loaded with different reagents to perform a combination of colourimetric sugar fermentation and enzymatic assays as shown in Table 4. [table] […] Staphylococcus Epidermidis ATCC 12228 or Staphylococcus Saprophyticus ATCC 15305 resuspended in Microbatch Staph 12 S suspending media. The strips were incubated overnight at 37° C., and positive/negative identification of assays on individual capillaries was performed by imaging the strips with CCD camera. Sugar Fermentation: if a sugar is fermented, bacteria will produce acid end products and the pH of the medium will drop. The media contains a pH indicator to indicate acid production. A positive test for sugar fermentation consists of a colour change from orange to yellow, indicating a pH change to acidic. Arginine and Urea degradation (detection of Arginine dihydrolase/Urease): when arginine or urea are present, the pH of the medium rises. Accordingly, a positive test for detection of arginine dihydrolase or urease consists of a colour change from orange to purple indicating a pH change to alkaline.

[5] = system: Staphylococcus Saprophyticus ATCC 15305; test: as above; format: cell-based; conditions: overnight at 37° C.; reagent per capillary from Table 4; orange to yellow = fermentation, orange to purple = arginine/urea degradation
Method: as §2

[6] = system: Staphylococcus Epidermidis ATCC 12228; test: as above; format: cell-based; conditions: overnight at 37° C.; reagent per capillary from Table 4; orange to yellow = fermentation, orange to purple = arginine/urea degradation
Method: as §2

[7] = ONPG loaded in strips, determined by dipping into beta-galactosidase solution, absorbance at 420 nm; format: physicochemical; conditions: loaded 5 minutes with 150 mg/ml in DMF; cross-linked PVA; 1 hour with beta-galactosidase 0.2 U/μL
Method: Secondly, the concentration of loaded ONPG was determined inside the capillary film by dipping an FEP microcapillary film coated with cross-linked PVA, and loaded for 5 minutes with 150 mg/ml ONPG dissolved in DMF, into aqueous solutions of beta-galactosidase enzyme (at 0.2 U/μL). The solution was drawn up into test strips, and incubated for 1 hour to allow complete enzymatic conversion of the loaded ONPG. Subsequently, solution was removed from MCF test strips using a syringe and absorbance read using a microplate reader at 420 nm, and absorbance compared to a calibration curve of known concentrations of enzymatically converted ONPG.

[8] = system: E. coli (ATCC accession number: 25922); test: ONPG loaded test strips dipped into bacterial culture, yellow colour; format: cell-based; conditions: IPTG-cultured (1 mM, 3 hours); 1 hour incubation at 37 degrees C
Method: (§3) A 10 bore FEP microcapillary film was internally coated with cross-linked PVA. Test microcapillary film was prepared by first loading the capillaries with ONPG by filling the capillaries with a 150 mg·mL^−1 ONPG substrate solution in DMF and incubating for 5 minutes. The substrate solution was then removed and the microcapillary film air dried using a syringe to pass air repeatedly through the capillaries. Seven test strips were cut from this ONPG loaded microcapillary film and dipped into one of 7 different aqueous samples. These comprised water (1); sterile Luria-Bertani lysogeny broth (LB) media (2); a 0.1 U/μl solution of β-galactosidase enzyme (3); an overnight culture of E. coli (ATCC accession number: 25922) suspended in LB (4); an overnight culture of Salmonella typhimurium (strain SL3261) suspended in LB (5); an overnight culture of E. coli suspended in a phosphate buffer saline PBS (6); an overnight culture of S. typhimurium suspended in PBS (7). Negative control test strips consisting of PVA coated cross-linked PVA but not loaded with ONPG were dipped into the same samples (referred hereafter as no substrate). As a comparison, similar assays were also performed in 96 well-plates with ONPG substrate solution (final concentration 1 mg·ml^−1) added to the different samples in a final volume of 100 μl. […]

[9] = system: Salmonella typhimurium (strain SL3261); test: as above; format: cell-based; conditions: IPTG-cultured (1 mM, 3 hours); 1 hour incubation at 37 degrees C
Method: as §3

[10] = ONPG released into water from loaded cross-linked PVA coated strips, enzymatic endpoint analysis at 420 nm; format: physicochemical; conditions: 1 hour, 60 mm strips
Method: Reagent loading and release from the hydrophilic layer was quantified using a fluorescent dye and colorimetric enzyme substrates. For this purpose, an FEP microcapillary film was coated with cross-linked PVA and loaded with two assay reagents, the enzymatic substrate ortho-nitrophenyl-β-galactoside (ONPG) which produces a yellow colour in the presence of beta-galactosidase, and the fluorescent dye fluorescein. Loading was performed by incubation with a water or dimethylformamide (DMF)-based reagent solution for between 5 minutes and 2 h, and subsequent removal of the loading solution using a syringe, followed by air drying of the capillaries by repeated aspiration of air through the film using a syringe. Following loading of the capillaries, the amount of reagent loaded was quantified using three different methods.
The water taken up was then removed using a syringe and ONPG concentration measured by enzymatic endpoint analysis in a microwell plate well through the addition of an excess of beta-galactosidase enzyme and monitoring absorbance at 420 nm using a microwell plate reader. Released concentrations were determined by comparison of absorbance with a calibration curve of known concentrations of ONPG.

[11] = ONPG released into water from strips with different hydrophilic coatings; format: physicochemical; conditions: loaded 150 g/L, 5 minute
Method: The polymer solutions were then removed from the microcapillary film and the film dried by repeatedly aspirating air through the film strip using a syringe. An FEP microcapillary film coated with cross-linked PVA was used as a control. 8 cm lengths of each polymer coated film were then loaded with ONPG reagent by dipping the film into a 150 g/L ONPG solution. After a 5 minute incubation, the ONPG solution was removed and capillaries were dried using a syringe. The test films were then dipped into water, and the amount of ONPG reagent released into the water measured by a colorimetric endpoint determination using beta-galactosidase enzyme. With the cross-linked PVA coated test strips, 7.8 mg/ml ONPG was released, with gelatine coated test strips 7.2 mg/ml ONPG was released, and with HPMC coated test strips 21.5 mg/ml ONPG was released.

[12] = system: E. coli (ATCC accession number: 25922); test: ONPG assay in 96 well-plates (comparison); format: cell-based; conditions: ONPG 1 mg/ml, overnight incubation
Method: (§4) A 10 bore FEP microcapillary film was internally coated with cross-linked PVA. Test microcapillary film was prepared by first loading the capillaries with ONPG by filling the capillaries with a 150 mg·mL^−1 ONPG substrate solution in DMF and incubating for 5 minutes. The substrate solution was then removed and the microcapillary film air dried using a syringe to pass air repeatedly through the capillaries. Seven test strips were cut from this ONPG loaded microcapillary film and dipped into one of 7 different aqueous samples. These comprised water (1); sterile Luria-Bertani lysogeny broth (LB) media (2); a 0.1 U/μl solution of β-galactosidase enzyme (3); an overnight culture of E. coli (ATCC accession number: 25922) suspended in LB (4); an overnight culture of Salmonella typhimurium (strain SL3261) suspended in LB (5); an overnight culture of E. coli suspended in a phosphate buffer saline PBS (6); an overnight culture of S. typhimurium suspended in PBS (7). Negative control test strips consisting of PVA coated cross-linked PVA but not loaded with ONPG were dipped into the same samples (referred hereafter as no substrate). As a comparison, similar assays were also performed in 96 well-plates with ONPG substrate solution (final concentration 1 mg·ml^−1) added to the different samples in a final volume of 100 μl.

[13] = system: Salmonella typhimurium (strain SL3261); test: ONPG assay in 96 well-plates (comparison); format: cell-based; conditions: ONPG 1 mg/ml, overnight incubation
Method: as §4

Salmonella typhimurium = test: Sugar fermentation in sugar loaded test strips with Phenol Red Broth; format: cell-based; conditions: sugar loaded from 1 g/L solution; 1 h at 37 degrees C; yellow = reduction in pH
Method: (§5) The ability of bacteria to ferment specific sugars is also frequently used to distinguish similar species of bacteria. For example, E. coli are able to ferment lactose and glucose and produce acid when they are incubated in the presence of either of these sugars.
(§6) A 10 bore FEP microcapillary film was internally coated with cross-linked PVA. Test microcapillary film was prepared by first loading the capillaries with either glucose or lactose by filling the capillaries with a 1 g/L solution in water and incubating for 5 minutes. The sugar solutions were then removed and the microcapillary film air dried using a syringe to pass air repeatedly through the capillaries. Three test strips were cut from each of the glucose or lactose loaded microcapillary film and dipped into one of 3 different aqueous samples. The first sample was a control sample that contained no bacteria. The second sample contained a suspension of E. coli. The third sample contained a suspension of Salmonella typhimurium. All three aqueous samples also contained Phenol Red Broth (Casein peptone 1 g/L; NaCl 0.5 g/L; Phenol Red 1 g/L). The samples all started out with a pH of 7 and were bright red in colour. When dipped, each aqueous sample was rapidly drawn up into the test strips, and the microcapillaries were clearly bright red in colour due to the Phenol Red indicator dye in the sample. […]

E. coli = test: as above; format: cell-based; conditions: sugar loaded from 1 g/L solution; 1 h at 37 degrees C; yellow = reduction in pH
Method: as §5, §6

O=[N+]([O-])c1ccc(OP(=O)(O)O)cc1 [4-Nitrophenyl phosphate]
colour, enzymatic assays [1]: Y

O=[N+]([O-])c1ccc(O[C@@H]2O[C@H](CO)[C@H](O)[C@H](O)[C@H]2O)cc1 [4-Nitrophenyl β-D-galacto-pyranoside]
colour, enzymatic assays [2]: Y

O=C(O)[C@H]1O[C@@H](Oc2ccc([N+](=O)[O-])cc2)[C@H](O)[C@@H](O)[C@@H]1O [4-Nitrophenyl β-D-glucuronide]
colour, enzymatic assays [1]: Y
colour, enzymatic assays [3]: Y

N=C(N)NCCC[C@H](N)C(=O)O [Arginine]
colour, fermentation assays [4]: O/P

OC[C@H]1O[C@H](O[C@H]2[C@H](O)[C@@H](O)[C@H](O)O[C@@H]2CO)[C@H](O)[C@@H](O)[C@@H]1O [Maltose]
colour, fermentation assays [4]: Y
colour, fermentation assays [5]: Y
colour, fermentation assays [6]: Y

OC[C@@H](O)[C@@H](O)[C@H](O)[C@H](O)CO [Mannitol]
colour, fermentation assays [4]: Y
colour, fermentation assays [5]: Y

CC(=O)N[C@H]1C(O)O[C@H](CO)[C@@H](O)[C@@H]1O (stereo partly drawn) [N-Acetyl Glucosamine]
colour, fermentation assays [4]: Y

O=[N+]([O-])c1ccccc1O[C@@H]1O[C@H](CO)[C@H](O)[C@H](O)[C@H]1O [ONPG, ortho-nitrophenyl-β-galactoside]
average concentration loaded within test strips [7]: 3.4 mg/mL
colour of ONPG-loaded test strips [8]: a yellow colour was observed
colour of ONPG-loaded test strips [9]: no yellow colour was observed
Released Concentration ([10]; Loading concentration 0.5 mg/ml In Water): 0.07 mg/mL
Released Concentration ([10]; Loading concentration 1.0 mg/ml In Water): 0.01 mg/mL
Released Concentration ([10]; Loading concentration 5.0 mg/ml In Water): 0.06 mg/mL
Released Concentration ([10]; Loading concentration 150.0 mg/ml In DMF): 4.67 mg/mL
ONPG released ([11]; HPMC coated test strips): 21.5 mg/mL
ONPG released ([11]; cross-linked PVA coated test strips): 7.8 mg/mL
ONPG released ([11]; gelatine coated test strips): 7.2 mg/mL
colour of wells [12]: turned yellow
colour of wells [13]: E. coli but not S. typhimurium suspensions turned yellow

OC[C@H]1O[C@@](CO)(O[C@H]2O[C@H](CO)[C@@H](O)[C@H](O)[C@H]2O)[C@@H](O)[C@@H]1O [Sucrose]
colour, fermentation assays [4]: Y
colour, fermentation assays [5]: Y
colour, fermentation assays [6]: Y

OC[C@H]1O[C@H](O[C@H]2O[C@H](CO)[C@@H](O)[C@H](O)[C@H]2O)[C@H](O)[C@@H](O)[C@@H]1O [Trehalose]
colour, fermentation assays [4]: Y
colour, fermentation assays [5]: Y

OC[C@H]1O[C@@H](O[C@H]2[C@H](O)[C@@H](O)C(O)O[C@@H]2CO)[C@H](O)[C@@H](O)[C@H]1O (stereo partly drawn) [lactose]
colour of sugar loaded test strips (Phenol Red) (Salmonella typhimurium): remained bright red
colour of sugar loaded test strips (Phenol Red) (E. coli): turned yellow
